Test results: patent publication US20220202912A1, “Polypeptides in Preparation of Drugs for Treatment or Prevention of Rheumatoid Arthritis” (priority 2011, published 2022)
Like-named read-outs stand apart in the source and are kept apart here. Where no end group is shown, it is not given here.

Legend:
[1] = test system: human U937 cells; test: human whole genome array of U937-derived macrophages; assay type: cell-based; settings: 13.5 μmol/L, 48 h
Protocol: 1.1.1 U937 cells are cultured in a 6-well plate at 3×10^6 cells/mL per well overnight, and PMA (25 ng/mL) is added on the next day for induction for 48 h. After the cells adhere, cultured supernatant is pipetted away. The cells are treated with mPEG-SC20k-HM-3 (test group) or a medium (negative control group) at 13.5 μmol/L at 37° C. for 48 h.
1.1.2 1×10^6 cells are taken from each of two groups of samples, and the solution has […], and is centrifuged for 5 min. The supernatant is removed. 1 mL of TRIZOL lysis solution is added and mixed uniformly, and the solution stands at room temperature for 5 min.
1.2 DNase I digest the RNA sample to remove any genomic DNA that may be contained therein. […]
1.8.2 Sample adding: An membrane on the PCR Array is opened, 10 μL of mixture is added to each well corresponding to the PCR Array, and a lid is closed to seal the PCR Array; after a real-time quantitative PCR program is set, the PCR Array is placed on the real-time quantitative PCR instrument for PCR reaction, and the prepared PCR Array is placed on ice before the PCR program is set. […]
1.9.3 2^−ΔΔCt values of the test group and the control group are calculated to analyze the difference in expression of the corresponding genes between the test group and the control group. […]

[2] = test system: cotton ball granuloma; assay type: in vivo, SD rats; settings: day 8
Protocol: The rats are randomly divided into a model control group, a positive control (dexamethasone) group, and mPEG-SC20k-HM-3 groups using subcutaneous injection at a high dose, a medium dose and a low dose, a total of 5 groups, and the drugs are administered to each group of animals by subcutaneous injection, for 7 days in succession.
Rats in each group are anesthetized with pentobarbital sodium (40 mg/kg) by intraperitoneal injection, and the abdominal coat is cut off. The skin in the middle of the lower abdomen is cut open under aseptic condition, and the incision is about 1 cm long. The subcutaneous tissue is expanded by vascular forceps, and 30 mg of sterile dry cotton balls (weighed accurately by an electronic balance before the test, and undergoing conventional autoclaving and drying for later use) are implanted hypodermically into the groin on one side. The incision is sutured, and an appropriate amount of amoxicillin is sprinkled on the incision to prevent infection.
The drug is administered on the same day after surgery, and is administered for 7 days in succession. On day 8, the rats are killed by cervical dislocation, the cotton balls are removed surgically, the fat tissue is removed, and the […] at 60° C. The mass of granuloma is expressed in mg (granulomatoma)/100 g (body weight). The granuloma mass difference between each administration group and the model control group is compared, and the inhibition rate is calculated. Data statistical analysis is performed on significant differences between the groups.
Inhibition rate (%)=(average granuloma mass of model control group−average granuloma mass of administration group)/average granuloma mass of model control group×100%.

[3] = test system: tumor in BALB/c nude mice; test: in vivo pharmacodynamics (antitumor) of PEG-modified HM-3 in BALB/c nude mice
Description: Four different types of mPEG-ALD and mPEG-SC with different molecular weights are selected to modify the polypeptide […](named HM-3), i.e., mPEG-ALD5k, mPEG-ALD10k, mPEG-SC10k, mPEG-SC20k, and modification reaction conditions are explored and optimized.

mPEG-SC20k-Ile-Val-Arg-Arg-Ala-Asp-Arg-Ala-Ala-Val-Pro-Gly-Gly-Gly-Gly-Arg-Gly-Asp ({mPEG‑SC 20k}-IVRRADRAAVPGGGGRGD) [polypeptide III]
number of related factors down-regulated at the mRNA level [1]: 538 | number of related factors up-regulated at the mRNA level [1]: 499 | Inhibition rate of cotton ball granuloma ([2]; 5 mg/kg sc once two days (G5)): 35.67% | cotton ball granuloma ([2]; 5 mg/kg sc once two days (G5)): 0.19 ± 0.03 mg(cotton ball granuloma)/100 g(weight) | Inhibition rate of cotton ball granuloma ([2]; 10 mg/kg sc once two days (G4)): 39.33% | cotton ball granuloma ([2]; 10 mg/kg sc once two days (G4)): 0.18 ± 0.02 mg(cotton ball granuloma)/100 g(weight) | Inhibition rate of cotton ball granuloma ([2]; 20 mg/kg sc once two days (G3)): 38.23% | cotton ball granuloma ([2]; 20 mg/kg sc once two days (G3)): 0.18 ± 0.03 mg(cotton ball granuloma)/100 g(weight) | antitumor effect in vivo ([3]; BALB/c nude mice): 50.23% | toxicity at an effective dose in vivo ([3]; body weight of nude mice basically stable): very low toxicity or no toxicity | elimination half life in vivo ([3]; compared with HM-3): greatly improved
